# Data reported in US20220372014A1, “NEUROPROTECTIVE COMPOUNDS AND METHODS OF USE THEREOF” (The Johns Hopkins University, priority 2019, published 2022).
# Tests used:
# [1] = system: α-syn PFF injected WT mice; assay: Intrastriatal α-syn PFF mouse model (TH/Nissl stereology, HPLC of dopamine and DOPAC, pole test, grip strength test, pulsed-field gel, weight)
# calcineurin = assay: Calcineurin cellular activity assay in SH-SY5Y cells; assay type: cell-based; conditions: 1 μM, 6 h
# Method: Calcineurin activity assay. Calcineurin activity was measured using a calcineurin cellular activity assay (Enzo Life Sciences) according to manufacturer's protocols. See Sangadala et al. (2019) Int. J. Mol. Sci. 20:1900. SH-SY5Y cells treated with FK506 or compound 121 were placed in a desalting column to remove excess phosphates and nucleotides. Total phosphate activity was determined in the samples by incubating with a calcineurin-specific substrate supplied in the manufacturer and measured by monitoring absorbance at 620 nm. Calcineurin activity was calculated as the difference between total phosphatase activity minus the phosphatase activity in the presence of 10 mM EGTA that blocks calcineurin activity.
# PAAN/MIF = assay: In vitro PAAN/MIF nuclease assay (PS30 or RF substrate, PAGE gel, noncleaved substrate DNA); assay type: biochemical, human
# Method: Nuclease assay. Purified PAAN/MIF protein (4 μM) was incubated with compounds (10 μM) in the nuclease buffer [10 mM Tris-C1 (pH 7.0) and 10 mM MgCl2] for 20 m on ice. Then samples were added with 1 μM of PAAN/MIF substrate (PS30 or RF) and incubated for 1 h at 37° C. The reaction was terminated with loading buffer containing 10 mM EDTA and separated on 15% TBE-urea polyacrylamide (PAGE) gel or 20% TBE PAGE gel.
# Purification of PAAN/MIF recombinant proteins. Human PAAN/MIF (NM_002415) cDNA and its variants were subcloned into pGEX-6β-1 vector (GE Healthcare) and mutants were generated using a QuikChange site-directed mutagenesis kit (Stratagene). The sequences were confirmed by automated DNA sequencing. The protein was expressed and purified from Escherichia coli by glutathione sepharose (GE Healthcare). The GST tag was subsequently proteolytically removed. GST protein was used as a negative control in the nuclease assay and PAAN/MIF proteins purified by FPLC using Superdex 200 10/300GL column (GE Healthcare, Life Sciences) were also used in the nuclease assays.
# DNA-MIF/PAAN complex = target: T1, DNA-MIF/PAAN complex (Homo sapiens, UniProt P14174); assay: Electrophoretic mobility shift assay (EMSA) of PAAN/MIF with biotin-labeled DNA substrate (PS30); assay type: binding; conditions: 1-100 μM
# T1 construct: GST (N, cleaved yes); made in house; host or cells: Escherichia coli
# T1 sequence (P14174 whole entry, one chain of several): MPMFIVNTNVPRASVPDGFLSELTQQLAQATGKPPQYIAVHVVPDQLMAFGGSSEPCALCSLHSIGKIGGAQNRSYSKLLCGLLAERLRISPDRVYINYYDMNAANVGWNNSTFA
# Method: Electrophoretic mobility shift assay (EMSA). EMSA assays were performed using the Light-Shift Chemiluminescent EMSA kit (Thermo Scientific) following the manufactures instruction. Recombinant PAAN/MIF protein (2 μM) was incubated with 1-100 μM PAANIB-1 as indicated in the binding buffer containing 10 mM MgCl2 for 10 min and further incubated with biotin-labeled DNA substrates (10 nM) for 30 min on ice. The mixture were separated on 6% retardation polyacrylamide and transferred to a Nylon membrane. Immunoblot analysis was performed to detect the biotin-labeled DNA using the Chemiluminescent Nucleic Acid Detection Module (Thermo Scientific).
# [2] = both doses, 5 and 15 mg/kg/day oral, 5 months
smiles,measurement,setting,value
COc1ccc(CC[C@H]2OC(=O)[C@@H]3CCCCN3C(=O)C(=O)C(C)(C)COC(=O)C=CCCN(C)C(=O)[C@@H]3CCCN3C(=O)[C@H](COC(C)(C)C)N(C)C(=O)C(c3ccccc3)NC(=O)[C@H](C)N(C)C(=O)COc3cc(F)cc2c3)cc1OC (mixture of isomers) [compound 121],"tolerability (toxicity, weight)","[1]; 5 and 15 mg/kg/day oral, 5 months",no overt toxicity or weight loss
same,"behavioral deficits (pole test, grip strength test)",[1]; [2],prevents
same,"loss of DA neurons (TH and Nissl stereology, TH immunoblot, HPLC of DA and DOPAC)",[1]; [2],prevents the loss of DA neurons
same,α-syn PFF-induced large scale genomic DNA cleavage in vivo,[1]; pulse gel electrophoresis,significantly attenuated
same,FK506 sensitive calcineurin activity,calcineurin,failed to inhibit
same,nuclease activity of MIF 66-67A or MIF 97-99A mutants,"PAAN/MIF; mutants K66A and I67A, N97A, Y98A and Y99A",remained sensitive to inhibition
same,nuclease activity of PAAN/MIF 60-63A and PAAN/MIF N72A mutants,"PAAN/MIF; mutants S60A, L61A, H62A and S63A (MIF 60-63A), N72A",became resistant
same,interaction of PAAN/MIF with its substrate,DNA-MIF/PAAN complex,does not disrupt
